According to patent US20250084080A1, “CRYSTALLINE AND SALT FORMS OF AN NLRP3 INHIBITOR” (BioAge Labs, Inc., priority 2023, published 2025):

Legend:
Type in all cases: physicochemical
[1] = Bulk stability (solid state, 1 week; HPLC, XRPD, IC, color); design: key to CL (color): A: no change of color; B: slight discoloration; C: medium discoloration; D: strong discoloration; settings: for Bulk (HPLC) Purity / Bulk (XRPD) / CL (color): Solid state
Protocol: Bulk stability of free form Pattern B was evaluated at 25° C./92.5% RH in an open container, at 40° C./75% RH in an open container and at 60° C. in a tight container over 1 week.

[2] = Hygroscopicity by dynamic vapor sorption (DVS) at 25° C.; settings: for Desorp. (%) / Sorp. (%): DVS 25° C.
Protocol: Dynamic vapor sorption (DVS) was performed on an Intrinsic, Advantage or Adventure with an oven temperature of 25° C. using water as a solvent. The sample mass was about 5-10 mg using the following method: • Cycle: 40-0-95-0-40% RH • Stage Step: 10% • Equilibrium: 0.002 dm/dt (%/min) • Minimum dm/dt stability duration: 60 min • Maximum dm/dt stage time: 360 min. Hygroscopicity of free form Pattern B was evaluated by dynamic vapor sorption (DVS) test at 25° C. […] It absorbed about 0.8% water at 80% RH at 25° C.

[3] = Solubility at 37° C. in buffers and biorelevant media, XRPD of residual solid; settings: for solubility at 2 h / solubility at 24 h: thermodynamic from solid
Protocol: Solubility of BAL-0748 free form Pattern B was investigated in pH 1.2 HCl buffer, pH 4.5 50 mM acetate buffer, pH 6.8 50 mM phosphate buffer, water, pH 1.6 FaSSGF, pH 6.5 FaSSIF-v1, pH 5.0 FeSSIF-v1 and 2% HPMC+1% Pluronic F68 in pH 4.5 50 mM acetate buffer at 37° C. for 2 h and 24 h. Residual solids after the solubility test were analyzed by XRPD.
Solubility of the free form Pattern A, the HCl salt Pattern A, the phosphate salt Pattern A, and the sodium salt Pattern A was measured in pH 1.2 HCl buffer, pH 4.5 acetate buffer (50 mM), pH 6.8 phosphate buffer (50 mM), water, pH 1.6 FaSSGF, pH 6.5 FaSSIF-v1, pH 5.0 FeSSIF-v1, and 2% HPMC+1% Pluronic F68 in pH 4.5 acetate buffer (50 mM) at 37° C. for 2 hours and 24 hours.
10.4 mg of the free form Pattern A, 10.0 mg of the free form Pattern B, 10.8 mg of the HCl salt Pattern A, 12.2 mg of the phosphate salt Pattern A, or 10.5 mg of the sodium salt Pattern A was weighed into a 20 mL glass vial, respectively. 5 mL of solubility medium was added. The salt amount used was equivalent to 10 mg anhydrous free form. Obtained suspensions were stirred at 37° C. at 400 rpm and sampled at 2 hours and at 24 hours. The samples were centrifuged at 37° C. at 14,000 rpm for 5 min. Supernatants were analyzed by HPLC and PH meter for solubility and pH value, respectively. Residual solids (wet cakes) from the 24 hours samples were also characterized by XRPD to determine physical form.

[4] = 25° C./92.5% RH open, 40° C./75% RH open, 60° C. tight container
[5] = aqueous buffer, pH 4.5 acetate buffer (50 mM), 37° C.
[6] = aqueous buffer, pH 6.8 phosphate buffer (50 mM), 37° C.
[7] = aqueous with cosolvent or surfactant or cyclodextrin, 2% HPMC + 1% Pluronic F68 in pH 4.5 acetate buffer (50 mM), 37° C.
[8] = fassgf or other biorelevant, FaSSGF, pH 1.6, 37° C.
[9] = simulated gastric fluid, pH 1.2 HCl buffer, 37° C.

Question: Which “Bulk stability, chemical and physical” value [1, 4] does the source give for CCOc1cc(C(=O)N(C)Cc2cnc(CO)c3cn[nH]c23)ccc1-c1cc(F)cc(F)c1.O=P(O)(O)O [Phosphate salt Pattern A, 2-ethoxy-3′,5′-difluoro-N-((4-(hydroxymethyl)-1H-pyrazolo[4,3-c]pyridin-7-yl)methyl)-N-methyl-[1,1′-biphenyl]-4-carboxamide phosphoric acid salt] here?
Answer: chemically and physically stable

Question: What about the “Degradation by HPLC” value [1, 4] of the same molecule?
Answer: no obvious degradation

Question: What about the “Form change by XRPD” value [1, 4] of the same molecule?
Answer: no form change

Question: What about the “Bulk (HPLC) Purity” value ([1]; 25° C./92.5% RH, open) of the same molecule?
Answer: 98.2%

Question: What about the “Bulk (XRPD)” value ([1]; 25° C./92.5% RH, open) of the same molecule?
Answer: No form change

Question: And the “CL (color)” value ([1]; 25° C./92.5% RH, open)?
Answer: A

Question: What about the “Bulk (HPLC) Purity” value ([1]; 40° C./75% RH, open) of the same molecule?
Answer: 98.2%

Question: What about the “Bulk (XRPD)” value ([1]; 40° C./75% RH, open) of the same molecule?
Answer: No form change

Question: What about the “CL (color)” value ([1]; 40° C./75% RH, open) of the same molecule?
Answer: A

Question: And the “Bulk (HPLC) Purity” value ([1]; 60° C., closed)?
Answer: 98.2%

Question: And the “Bulk (XRPD)” value ([1]; 60° C., closed)?
Answer: No form change

Question: And the “CL (color)” value ([1]; 60° C., closed)?
Answer: A

Question: And the “Desorp. (%)” value ([2]; 0% RH, 1st desorption)?
Answer: 0.03%

Question: What about the “Sorp. (%)” value ([2]; 0% RH, 1st sorption) of the same molecule?
Answer: 0.03%

Question: What about the “Desorp. (%)” value ([2]; 0% RH, 2nd desorption) of the same molecule?
Answer: 0.00%

Question: And the “Sorp. (%)” value ([2]; 0% RH, 2nd sorption)?
Answer: 0.00%

Question: What about the “Desorp. (%)” value ([2]; 10% RH, 1st desorption) of the same molecule?
Answer: 0.12%

Question: And the “Sorp. (%)” value ([2]; 10% RH, 1st sorption)?
Answer: 0.11%

Question: What about the “Desorp. (%)” value ([2]; 10% RH, 2nd desorption) of the same molecule?
Answer: 0.09%

Question: What about the “Sorp. (%)” value ([2]; 10% RH, 2nd sorption) of the same molecule?
Answer: 0.09%

Question: What about the “Desorp. (%)” value ([2]; 20% RH, 1st desorption) of the same molecule?
Answer: 0.16%

Question: And the “Sorp. (%)” value ([2]; 20% RH, 1st sorption)?
Answer: 0.15%

Question: And the “Desorp. (%)” value ([2]; 20% RH, 2nd desorption)?
Answer: 0.14%

Question: What about the “Sorp. (%)” value ([2]; 20% RH, 2nd sorption) of the same molecule?
Answer: 0.13%

Question: What about the “Desorp. (%)” value ([2]; 30% RH, 1st desorption) of the same molecule?
Answer: 0.20%

Question: What about the “Sorp. (%)” value ([2]; 30% RH, 1st sorption) of the same molecule?
Answer: 0.18%

Question: And the “Desorp. (%)” value ([2]; 30% RH, 2nd desorption)?
Answer: 0.18%

Question: And the “Sorp. (%)” value ([2]; 30% RH, 2nd sorption)?
Answer: 0.17%

Question: What about the “Desorp. (%)” value ([2]; 40% RH, 1st desorption) of the same molecule?
Answer: 0.24%

Question: What about the “Sorp. (%)” value ([2]; 40% RH, 1st sorption) of the same molecule?
Answer: 0.23%

Question: What about the “Desorp. (%)” value ([2]; 40% RH, 2nd desorption) of the same molecule?
Answer: 0.23%

Question: What about the “Sorp. (%)” value ([2]; 40% RH, 2nd sorption) of the same molecule?
Answer: 0.21%

Question: And the “Sorp. (%)” value ([2]; 50% RH, 1st sorption)?
Answer: 0.27%

Question: What about the “Desorp. (%)” value ([2]; 50% RH, 2nd desorption) of the same molecule?
Answer: 0.29%

Question: And the “Sorp. (%)” value ([2]; 60% RH, 1st sorption)?
Answer: 0.32%

Question: And the “Desorp. (%)” value ([2]; 60% RH, 2nd desorption)?
Answer: 0.35%

Question: What about the “Sorp. (%)” value ([2]; 70% RH, 1st sorption) of the same molecule?
Answer: 0.37%

Question: And the “Desorp. (%)” value ([2]; 70% RH, 2nd desorption)?
Answer: 0.41%

Question: And the “Sorp. (%)” value ([2]; 80% RH, 1st sorption)?
Answer: 0.45%

Question: What about the “Desorp. (%)” value ([2]; 80% RH, 2nd desorption) of the same molecule?
Answer: 0.48%

Question: And the “Sorp. (%)” value ([2]; 90% RH, 1st sorption)?
Answer: 0.61%

Question: And the “Desorp. (%)” value ([2]; 90% RH, 2nd desorption)?
Answer: 0.63%

Question: And the “Sorp. (%)” value ([2]; 95% RH, 1st sorption)?
Answer: 0.82%

Question: What about the “Desorp. (%)” value ([2]; 95% RH, 2nd desorption) of the same molecule?
Answer: 0.82%

Question: And the “XRPD after DVS test” value ([2]; DVS at 25° C.)?
Answer: No form change

Question: And the “Water absorbed at 80% RH” value ([2]; DVS at 25° C., 80% RH)?
Answer: It absorbed 0.5%

Question: What about the “pH of supernatant at 24 h” value ([3]; 2% HPMC + 1% Pluronic F68 in pH 4.5 acetate buffer (50 mM), 37° C.) of the same molecule?
Answer: (4.5)

Question: What about the “Solubility compared with the free form Pattern A” value ([3]; 2% HPMC+1% Pluronic F68 in acetate buffer (pH 4.5)) of the same molecule?
Answer: comparable solubility

Question: What about the “pH of supernatant at 24 h” value ([3]; FaSSGF, pH 1.6, 37° C.) of the same molecule?
Answer: (1.6)

Question: And the “pH of supernatant at 24 h” value ([3]; FaSSIF-v1, pH 6.5, 37° C.)?
Answer: (6.2)

Question: What about the “pH of supernatant at 24 h” value ([3]; FeSSIF-v1, pH 5.0, 37° C.) of the same molecule?
Answer: (4.9)

Question: What about the “pH of supernatant at 24 h” value ([3]; Water, 37° C.) of the same molecule?
Answer: (2.6)

Question: What about the solubility at 2 h [3, 5] of the same molecule?
Answer: 9.4 µg/mL

Question: And the solubility at 24 h [3, 5]?
Answer: 11.8 µg/mL

Question: What about the solubility at 2 h [3, 6] of the same molecule?
Answer: 2.4 µg/mL

Question: And the solubility at 24 h [3, 6]?
Answer: 2.9 µg/mL

Question: What about the solubility at 2 h [3, 7] of the same molecule?
Answer: 16.4 µg/mL

Question: What about the solubility at 24 h [3, 7] of the same molecule?
Answer: 17.9 µg/mL

Question: What about the solubility at 2 h [3, 8] of the same molecule?
Answer: 710 µg/mL

Question: What about the solubility at 24 h [3, 8] of the same molecule?
Answer: 653 µg/mL

Question: What about the “pH of supernatant at 24 h” value ([3]; pH 1.2 HCl buffer, 37° C.) of the same molecule?
Answer: (1.2)

Question: What about the “pH of supernatant at 24 h” value ([3]; pH 4.5 acetate buffer (50 mM), 37° C.) of the same molecule?
Answer: (4.4)

Question: What about the “pH of supernatant at 24 h” value ([3]; pH 6.8 phosphate buffer (50 mM), 37° C.) of the same molecule?
Answer: (6.7)

Question: What about the “Solubility compared with the free form Pattern A” value ([3]; pure water) of the same molecule?
Answer: obviously higher solubility

Question: What about the solubility at 2 h [3, 9] of the same molecule?
Answer: 402 µg/mL

Question: And the solubility at 24 h [3, 9]?
Answer: 390 µg/mL

Question: And the solubility at 2 h ([3]; FaSSIF-v1, pH 6.5, 37° C.)?
Answer: 8.4 µg/mL

Question: What about the solubility at 24 h ([3]; FaSSIF-v1, pH 6.5, 37° C.) of the same molecule?
Answer: 13.7 µg/mL

Question: What about the solubility at 2 h ([3]; FeSSIF-v1, pH 5.0, 37° C.) of the same molecule?
Answer: 140 µg/mL

Question: And the solubility at 24 h ([3]; FeSSIF-v1, pH 5.0, 37° C.)?
Answer: 159 µg/mL

Question: And the solubility at 2 h ([3]; Water, 37° C.)?
Answer: 384 µg/mL

Question: What about the solubility at 24 h ([3]; Water, 37° C.) of the same molecule?
Answer: 442 µg/mL
